Assay results: ChEMBL document CHEMBL4651402, “Screening of ~5500 FDA-approved drugs and clinical candidates for anti-SARS-CoV-2 activity” (2021)

Tested on: SARS-CoV-2
Assay: microbe, parasite or virus in culture
Conditions: Severe acute respiratory syndrome coronavirus 2, Vero C1008, 48 h

Structure (SMILES)	IC50 [µM]	IC50 (read-out: pIC50 (converted)) [µM]
CCN1CCN(c2ccc(Nc3cc(N(C)C(=O)Nc4c(Cl)c(OC)cc(OC)c4Cl)ncn3)cc2)CC1 [INFIGRATINIB]	> 20	> 20
NC(=O)c1ccc(I)c([N+](=O)[O-])c1 [INIPARIB]	> 20	> 20
O=c1[nH]cnc2c1ncn2[C@@H]1O[C@H](CO)[C@@H](O)[C@H]1O [INOSINE]	> 20	> 20
O[C@H]1[C@H](O)[C@@H](O)[C@H](O)[C@@H](O)[C@H]1O [INOSITOL]	> 20	> 20
O=S(=O)(c1ccccc1)c1cnc2c(N3CCNCC3)cccc2c1 [INTEPIRDINE]	> 20	> 20
O=C(c1ccc(Cl)cc1)n1cc(Cc2nnn[nH]2)c2ccccc21 [INTRAZOLE]	> 20	> 20
CN(C)CC#CC=C1c2ccccc2C=Cc2ccccc21 [INTRIPTYLINE]	> 20	> 20
N=C(N)NCc1cccc(I)c1 [IOBENGUANE]	> 20	> 20
CC(=O)N(CC(C)C(=O)O)c1c(I)cc(I)c(N)c1I (centres undefined) [IOCETAMIC ACID]	> 20	> 20
O=C(CCCCC(=O)Nc1c(I)cc(I)c(C(=O)O)c1I)Nc1c(I)cc(I)c(C(=O)O)c1I [IODIPAMIDE]	> 20	> 20
CC(=O)N(CC(O)CN(C(C)=O)c1c(I)c(C(=O)NCC(O)CO)c(I)c(C(=O)NCC(O)CO)c1I)c1c(I)c(C(=O)NCC(O)CO)c(I)c(C(=O)NCC(O)CO)c1I (centres undefined) [IODIXANOL]	> 20	> 20
Oc1c(I)cc(I)c2cccnc12 [IODOQUINOL]	> 20	> 20
CC(=O)N(CC(O)CO)c1c(I)c(C(=O)NCC(O)CO)c(I)c(C(=O)NCC(O)CO)c1I (centres undefined) [IOHEXOL]	> 20	> 20
CCC(Cc1c(I)cc(I)c(N)c1I)C(=O)O (centres undefined) [IOPANOIC ACID]	> 20	> 20
COCC(=O)Nc1c(I)c(C(=O)NCC(O)CO)c(I)c(C(=O)N(C)CC(O)CO)c1I (centres undefined) [IOPROMIDE]	> 20	> 20
O=C(COCCOCCOCC(=O)Nc1c(I)cc(I)c(C(=O)O)c1I)Nc1c(I)cc(I)c(C(=O)O)c1I [IOTROXIC ACID]	> 20	> 20
O=C(NCC(O)CO)c1c(I)c(C(=O)NCC(O)CO)c(I)c(N(CCO)C(=O)CO)c1I (centres undefined) [IOVERSOL]	> 20	> 20
CNC(=O)c1c(I)c(C(=O)NCC(=O)Nc2c(I)c(C(=O)O)c(I)c(C(=O)NCCO)c2I)c(I)c(N(C)C(C)=O)c1I [IOXAGLIC ACID]	> 20	> 20
CC(C)NC[C@@H](C(=O)N1CCN(c2ncnc3c2[C@H](C)C[C@H]3O)CC1)c1ccc(Cl)cc1 [IPATASERTIB]	> 20	> 20

Structure (SMILES)	IC50 [µM]	IC50 (read-out: pIC50 (converted)) [µM]
Nc1c2c(nc3c1CCC3)CCCC2 [IPIDACRINE]	> 20	> 20
OC[C@H]1O[C@@H](c2ccc(F)c(Cc3cc4ccccc4s3)c2)[C@H](O)[C@@H](O)[C@@H]1O [IPRAGLIFLOZIN]	> 20	> 20
CC(C)Oc1ccc2c(=O)c(-c3ccccc3)coc2c1 [IPRIFLAVONE]	> 20	> 20
CN(C)CCCn1c2c(c3ccccc31)CCCCCC2 [IPRINDOLE]	> 20	> 20
CC(C)CCCC(C)NC(C)C (centres undefined) [IPROHEPTINE]	> 20	> 20
CC(C)NNC(=O)c1ccncc1 [IPRONIAZID]	> 20	> 20
CC(C)c1ncc([N+](=O)[O-])n1C [IPRONIDAZOLE]	> 20	> 20
O=C1c2ccccc2S(=O)(=O)N1CCCCN1CCN(c2ncccn2)CC1 [IPSAPIRONE]	> 20	> 20
CCCCC1=NC2(CCCC2)C(=O)N1Cc1ccc(-c2ccccc2-c2nnn[nH]2)cc1 [IRBESARTAN]	> 20	> 20
O=C1NCCN1CCN1CCN([C@@H]2C[C@@H](c3ccc(F)cc3)c3ccccc32)CC1 [IRINDALONE]	> 20	> 20
Nc1nc(N)nc(-c2cc(Cl)ccc2Cl)n1 [IRSOGLADINE]	> 20	> 20
Cc1nc2cc(C(c3ccccc3)n3ccnc3)ccc2[nH]1 (centres undefined) [IRTEMAZOLE]	> 20	> 20
CC(C)NCC(O)COc1ccccc1-n1cccc1 (centres undefined) [ISAMOLTAN]	> 20	> 20
Nc1nc(=O)c2sc(=O)n([C@@H]3O[C@H](CO)[C@@H](O)[C@H]3O)c2[nH]1 [ISATORIBINE]	> 25.1	> 25.1
CC(C)Nc1ncccn1 [ISAXONINE]	> 20	> 20
O=C(O)CCCC/C=C(/c1ccccc1)c1cccnc1 [ISBOGREL]	> 20	> 20
COc1cc2occc2c2oc(=O)ccc12 [ISOBERGAPTENE]	> 20	> 20
CC(C)COC(=O)c1ccc(N)cc1 [ISOBUTAMBEN]	> 20	> 20
